Reference: US20160229847A1, “NOVEL BICYCLIC PYRIDINONES AS GAMMA-SECRETASE MODULATORS” (PFIZER INC., priority 2013, published 2016)
Where a name gives a salt, the structure may show the parent alone. Read-outs that look alike come from different tables or passages of the source.

Target: γ-secretase (Cricetulus griseus, UniProt G3HNF2)
Assay: Cell-Based γ-Secretase Assay with ELISA Readout (production of amyloid beta protein Aβ(1-42))
Conditions: human WT-APP overexpressing CHO cells, ~24 h incubation, Aβ(1-42) ELISA
[1] = read-out: Aβ 42B IC50 (nM) (Geometric Mean of 2-5 Determinations), Table 5, geometric mean of 2-5 determinations

Protocol: The ability of compounds to modulate production of amyloid beta protein Aβ(1-42) was determined using human WT-APP overexpressing CHO cells. Cells were plated at 22,000 cells/100 μL well in 96 well tissue culture treated, clear plates (Falcon) in DMEM/F12 based medium and incubated for 24 h at 37° C. […] Compounds were added in fresh medium to achieve 1% final DMSO. Appropriate vehicle or inhibitor controls were added into control wells individually to obtain minimum or maximum inhibition values, respectively, for the assay signal window before the plates were incubated for ˜24 h at 37° C. This procedure produces conditioned media in each well which is tested for Aβ(1-42) levels in the ELISA detection step described next. The remaining cell cultures in each well are also tested for cell toxicity as described below.
Coating of ELISA assay plates was initiated by addition of 50 μL/well of an in-house Aβ(1-42) specific antibody at (3 μg/mL) in 0.1 M NaHCO3 (pH 9.0) into black 384-well Maxisorp® plates (Nunc) and incubated overnight at 4° C. The capture antibody was then aspirated from the ELISA assay plates and plates were washed either 2×100 uL with a Matrical Squirt plate washer, or 3×90 uL with a Thermo Combi, using Wash Buffer (Dulbecco's PBS, 0.05% Tween 20). 90 μL/well of Blocking Buffer (Dulbecco's PBS, 1.0% BSA (Sigma A7030) was then added to plates. Ambient temperature incubation was allowed to proceed for a minimum of 2 h. Blocking buffer was then removed and 20 μL/well Assay Buffer (Dulbecco's PBS, 1.0% BSA (Sigma A7030), 0.05% Tween 20) was then added. At this point, 35 uL (40 uL prior to August, 2012) (in duplicate) of experimental conditioned media (described above) were transferred into wells of the blocked ELISA plates containing the capture antibody, followed by overnight incubation at 4° C. Cell toxicity was also measured in the corresponding remaining cells after removal of the conditioned media for the Aβ(1-42) assay by a colorimetric cell proliferation assay (CellTiter 96® AQueous One Solution Cell Proliferation Assay, Promega) according to the manufacturer's instructions.
After overnight incubation of the ELISA assay plates at 4° C., unbound Aβ peptides were removed via either 2×100 uL washes with a Matrical Squirt plate washer, or 3×90 uL washes with a Thermo Combi, using Wash Buffer. Europium (Eu) labeled (custom labeled, PerkinElmer) Aβ(1-16) 6e10 Monoclonal Antibody (Covance #SIG-39320) was added, (50 μL/well Eu-6e10 @ 1:10,000, 20 uM EDTA) in Assay Buffer. […] Following 30 to 60 min ambient temperature incubation, the plates were read on an EnVision plate reader (PerkinElmer) using standard DELFIA TRF settings. […]

Row | Molecule | IC50 [1] [nM] | IC50 (Table 5, footnote 1: single determination, read-out: Aβ 42B IC50 (nM), IC50 value is from a single determination) [nM]
1 | Cc1cn(-c2ccc3n(c2=O)CCN(Cc2nc(C4(c5ccc(Cl)cc5)CCC4)no2)C3=O)cn1 [Example 18, 2-({3-[1-(4-chlorophenyl)cyclobutyl]-1,2,4-oxadiazol-5-yl}methyl)-7-(4-methyl-1H-imidazol-1-yl)-3,4-dihydro-2H-pyrido[1,2-a]pyrazine-1,6-dione, trifluoroacetate salt] | 169 | –
2 | Cc1cn(-c2ccc3n(c2=O)CCN(CC2(c4ccc(Cl)cc4)CC2)C3=O)cn1 [Example 17, 2-{[1-(4-chlorophenyl)cyclopropyl]methyl}-7-(4-methyl-1H-imidazol-1-yl)-3,4-dihydro-2H-pyrido[1,2-a]pyrazine-1,6-dione, trifluoroacetate salt] | 410 | –
3 | 2-[(7-chloro-6,8-dimethoxyquinolin-2- yl)methyl]-7-(4-methyl-1H-imidazol- 1-yl)-3,4-dihydro-2H-pyrido[1,2- a]pyrazine-1,6-dione [Example 87] | 150 | –
4 | 2-[(4′-fluorobiphenyl-3-yl)methyl]- 7-(4-methyl-1H-imidazol-1-yl)- 3,4-dihydro-2H-pyrido[1,2- a]pyrazine-1,6-dione, formate salt [Example 12] | – | 83.4
